test system: not listed separately; experiment: Liver microsomal stability (extraction ratio); type: in vitro ADME; details: test compound 1 μM, 0.5 mg/mL liver microsomes, NADPH, 37° C.; species not stated (method: mouse, rat, and human)
Method: Protocol for Liver Microsomal Stability (Extraction Ratio)
Liver Microsomal Stability. Microsomal stability studies (Chrovian et al, “1H-Pyrrolo[3,2-b]pyridine GluN2B-Selective Negative Allosteric Modulators”. ACS Med Chem Lett. 2019 Jan. 10; 10(3):261-266) were conducted on a Biomek® FX Robotic Liquid Handling Workstation (Beckman Coulter, Brea, CA), which consists of a 96-channel pipette head, a 12-position workstation deck, and a plate incubator. Test compounds (1 μM) were spiked in a reaction mix consisting of 100 mM potassium phosphate buffer (pH 7.4), 3 mM MgCl2, and 0.5 mg/mL liver microsomes from mouse, rat, and human (BD Gentest). The reaction was brought to 37° C. and initiated by adding NADPH to a final concentration of 1 mM. After mixing on the plate deck, 50 μL aliquots were excised from the reaction plate at 0, 5, 10, 20, 40, and 60 min and quenched with four volumes of acetonitrile spiked with […] of the internal standard phenytoin. Quenched plates were centrifuged at 5700 rpm for 10 min at 4° C., and supernatant was diluted 1:3 in water before LC/MS/MS analysis. The compound half-lives were derived from plots of the ln of percent remaining compound over time to determine the intrinsic clearance. The predicted hepatic clearance was derived from the intrinsic clearance value using equations from the well-stirred model (Current Drug Metabolism, 2008, 9, 940-951), where no correction was made plasma protein binding and the blood to plasma concentration ratio was assumed to be one. The extraction ratio (ER) was calculated by dividing the predicted hepatic clearance by species blood flow (Q), where Q is 90, 55, and 21.7 mL/min/kg for mouse, rat and human, respectively

Compound | Extraction Ratio @ 1 μM
CN(C)C(=O)Cn1ncc2ncc(-c3ccc(F)c(C(F)F)c3)nc21 [Example 10, 2-[6-[3-(Difluoromethyl)-4-fluoro-phenyl]pyrazolo[3,4-b]pyrazin-1-yl]-N,N-dimethyl-acetamide] | 0.41
O=C(Cn1ncc2ncc(-c3ccc(F)c(OC(F)F)c3)nc21)N1CCC1 [Example 28, 1-(Azetidin-1-yl)-2-[6-[3-(difluoromethoxy)-4-fluoro-phenyl]pyrazolo[3,4-b]pyrazin-1-yl]ethanone] | 0.45
O=C(Cn1ncc2ncc(-c3ccc(F)c(OC(F)F)c3)nc21)N1CC(F)C1 [Example 37, 2-[6-[3-(Difluoromethoxy)-4-fluoro-phenyl]pyrazolo[3,4-b]pyrazin-1-yl]-1-(3-fluoroazetidin-1-yl)ethanone] | 0.46
CN(C)C(=O)Cn1ncc2ncc(-c3ccc(Cl)c(C(F)F)c3)nc21 [Example 12, 2-[6-[4-Chloro-3-(difluoromethyl)phenyl]pyrazolo[3,4-b]pyrazin-1-yl]-N,N-dimethyl-acetamide] | 0.54
O=C(Cn1nc(F)c2ncc(-c3ccc(F)c(C(F)F)c3)nc21)N1CCC1 [Example 25, 1-(Azetidin-1-yl)-2-[6-[3-(difluoromethyl)-4-fluoro-phenyl]-3-fluoro-pyrazolo[3,4-b]pyrazin-1-yl]ethanone] | 0.41

target: T1, human GluN1/GluN2B NMDA receptors (Homo sapiens, UniProt Q13224); experiment: Cell-based calcium flux (FLIPR) assay on cloned human NR1/NR2B ion channels expressed in mammalian cells; details: standard assay, glutamate ~EC40 plus 10 μM glycine, cells expressing human GluN1/GluN2B
T1 construct: expressed in transfected cells
Method: Effects of Test Articles on Cloned Human NR1/NR2B Ion Channels Expressed in Mammalian Cells
NMDA receptors are ion channels that are highly permeable to Ca^2+ ions, rendering it possible to monitor NMDA receptor function using cell-based calcium flux assay. In this assay, co-agonists glutamate and glycine are added to cells heterologously expressing human GluN1/GluN2B NMDA receptors to initiate cellular Ca^2+ influx. The time course of the changes in intracellular calcium is measured using a fluorescent dye and a FLIPR (Fluorometric Imaging Plate Reader) device.
Twenty four hours before measurements, the expression of the NMDA receptors in the stable cell line is induced with Tet-On inducible system in the presence of a non-selective NMDA receptor blocker. […] After 1 h incubation at the room temperature, the dye is washed away with the assay buffer (137 mM NaCl (standard assay) or 150 mM (HTS assay), 4 mM KCl (standard assay) or 3 mM (HTS assay), 2 mM CaCl2), 0.01 mM EDTA, 10 mM HEPES and 5 mM D-glucose; pH 7.4) In the FLIPR TETRA reader, various concentrations of the test compounds are added to the cells for 5 min while fluorescence is monitored to detect potential agonist activity. […] The fluorescent signal in the presence of test compounds is quantified and normalized to the signal defined by the appropriate control wells.

T1 sequence (Q13224 27-1484, other chains not shown): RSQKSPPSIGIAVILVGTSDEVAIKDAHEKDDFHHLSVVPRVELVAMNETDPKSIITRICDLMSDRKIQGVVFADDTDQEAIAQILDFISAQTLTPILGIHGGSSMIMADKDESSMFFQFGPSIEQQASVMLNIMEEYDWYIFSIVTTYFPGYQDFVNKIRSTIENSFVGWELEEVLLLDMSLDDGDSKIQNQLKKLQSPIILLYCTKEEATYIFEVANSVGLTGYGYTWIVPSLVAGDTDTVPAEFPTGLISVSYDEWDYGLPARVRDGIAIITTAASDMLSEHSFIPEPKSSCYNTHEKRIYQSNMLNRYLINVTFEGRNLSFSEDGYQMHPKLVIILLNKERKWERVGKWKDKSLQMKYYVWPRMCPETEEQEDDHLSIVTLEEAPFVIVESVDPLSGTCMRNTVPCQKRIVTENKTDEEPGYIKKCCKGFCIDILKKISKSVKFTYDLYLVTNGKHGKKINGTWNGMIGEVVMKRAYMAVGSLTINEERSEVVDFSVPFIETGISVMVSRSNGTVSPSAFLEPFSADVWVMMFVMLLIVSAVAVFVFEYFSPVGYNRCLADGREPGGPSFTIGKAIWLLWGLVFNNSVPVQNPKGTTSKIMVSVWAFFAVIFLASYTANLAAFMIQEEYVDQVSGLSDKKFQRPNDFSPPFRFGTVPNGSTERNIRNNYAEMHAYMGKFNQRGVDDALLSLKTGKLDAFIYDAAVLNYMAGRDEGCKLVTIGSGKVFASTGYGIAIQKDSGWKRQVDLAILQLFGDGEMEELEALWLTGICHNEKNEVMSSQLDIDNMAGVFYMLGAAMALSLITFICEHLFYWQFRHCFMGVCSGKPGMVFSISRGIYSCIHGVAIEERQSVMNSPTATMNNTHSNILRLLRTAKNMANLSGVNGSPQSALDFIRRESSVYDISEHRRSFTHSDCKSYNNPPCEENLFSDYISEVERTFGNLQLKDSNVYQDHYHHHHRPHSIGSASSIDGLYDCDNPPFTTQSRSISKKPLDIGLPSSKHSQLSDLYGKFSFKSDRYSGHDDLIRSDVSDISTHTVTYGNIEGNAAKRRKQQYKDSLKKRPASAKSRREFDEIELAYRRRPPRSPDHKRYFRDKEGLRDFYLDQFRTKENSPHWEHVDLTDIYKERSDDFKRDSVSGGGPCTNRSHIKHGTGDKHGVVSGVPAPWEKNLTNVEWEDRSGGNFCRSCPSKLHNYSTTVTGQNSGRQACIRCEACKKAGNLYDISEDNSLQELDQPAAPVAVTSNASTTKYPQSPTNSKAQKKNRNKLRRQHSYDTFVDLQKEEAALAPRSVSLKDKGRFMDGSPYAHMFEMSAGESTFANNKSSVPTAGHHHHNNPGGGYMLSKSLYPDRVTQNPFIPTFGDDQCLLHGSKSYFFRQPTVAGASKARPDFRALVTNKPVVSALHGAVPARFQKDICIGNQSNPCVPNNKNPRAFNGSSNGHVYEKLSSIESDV

Compound | IC50 [nM]
2-[6-(4-Fluoro-3-methyl-phenyl)pyrazolo[3,4-b]pyrazin-1-yl]-N,N-dimethyl-acetamide [Example 7] | 117

Reference: patent US11993587B2, “Substituted pyrazolo-pyrazines and their use as GluN2B receptor modulators” (JANSSEN PHARMACEUTICA NV, priority 2019, dated 2024)
